Reference: patent US20100137344A1, “INDUCTION OF ANALGESIA IN NEUROPATHIC PAIN” (University Court of the University of Edinburgh, priority 2006, published 2010)

Columns and labels:
[1] = test system: saphenous nerve afferents; experiment: Saphenous nerve afferent recordings after topical application to receptive field; assay type: in vivo, rat
From the text: Antisense and mis-sense oligonucleotides were 22-mers with phosphorothioate bonds at the last two positions at 5′ and 3′ ends (MWG Biotech, Ebersberg, Germany). Antisense extended from base −10 to base +12 relative to the start of the open reading frame for the rat TRPM8 gene: 5′ C*T*CGAAGGACATCTTGCCGT*G*G 3′, where * represents phosphorothioate linkages. Mis-sense was designed with 4 inversions of C/G or A/T as appropriate at residues 3, 11, 14 and 22, preserving overall G/C content. BLAST searches of both oligonucleotides indicated no significant complementarity to any known gene sequence. 14-day or 7-day osmotic minipumps (for CCI experiments or naïve electrophysiology experiments respectively—Alzet Minipump, models 2002, 2001; Charles River, UK) containing oligonucleotides (1 μg/μl in sterile saline) were connected to canulae inserted under the dura of the spinal cord to level L5/6 and produced a predicted infusion rate of 0.5 μl/h. CCI surgery was performed at the same time as minipump implantation. Sensory tests were carried out to assess the time-course of behavioural sensitisation in animals which had also undergone a CCI injury. Icilin was applied topically rather than intrathecally so as to prevent any interference with the infusion canula. Peripheral nerve recordings and tissue harvesting were carried out after an interval of 4-5 days to allow time for protein knockdown.
Peripheral: Recordings of saphenous (sensory) nerve were made in naïve animals (n=7) to assess the effects of topical icilin on primary afferents. In addition, recordings were carried out on animals which had undergone TRPM8 antisense or mis-sense treatment beginning 4-5 days previously. Rats were anaesthetised (with 0.6 ml 25% urethane/100 g, i.p.) and the saphenous nerve was exposed and dissected from its associated vein and artery. Further dissection under liquid paraffin enabled identification of afferent preparations comprising a small number of fibres. The conduction velocity of single identified afferent fibres was determined using bipolar electrodes and the peripheral stimulus technique^[43]. Following isolation of preparations, icilin (200 μM in water with 0.2% DMF), (−)-menthol (4 mM in 25% ethanol) resiniferatoxin (1 mM in ethanol) or vehicle alone were applied to the hindlimb receptive fields and neuronal responses recorded using the Chart programme (version 3.6). Central: Recordings of spinal dorsal horn neurons were made in CCI animals, as described previously^[39]. Following halothane induction, the jugular vein and trachea were canulated and intravenous anaesthetic delivered: α-chloralose ([…], Fisher) and urethane ([…], Sigma), with small supplementary doses of α-chloralose as required throughout the experiment. Core body temperature was maintained at 37-38° C. by means of a thermostatically controlled heated blanket. The animal was placed in a stereotaxic frame, and the thoracolumbar spinal column was supported using three pairs of swan-necked clamps. A laminectomy was performed at L2-L5, and agar (2% in saline at 37° C.) was delivered over exposed cord to increase mechanical stability. Above the recording region the agar and spinal cord dura were removed and liquid paraffin poured into the pool. Extracellular recordings were made from single multireceptive neurons in laminae I-IV through the centre barrel of a seven-barrelled glass microelectrode filled with 4M NaCl (tip-diameter […], DC resistance 5-8 MΩ). The receptive fields of hair-follicle innervated neurons on the distal hindlimb were identified by an innocuous brush stimulus^[39]. Icilin (200 μM in water with 0.2% DMF) was applied peripherally to the receptive field of individual recorded neurons, and the effect on neuronal response to a rotating brush was recorded and analysed using Spike2 programme (Version 3.2, CED). […]

[2] = test system: naïve rats; experiment: Topical application to paws of naïve rats, behavioural reflex testing (PWL, PWT); assay type: in vivo, rat; settings: Naïve
Procedure: Thermal sensitivity was assessed by measuring paw withdrawal latency (PWL, s) in response to a noxious thermal stimulus (Hargreaves' thermal stimulator, Linton Instrumentation, Diss, UK) directed to the hindpaw mid-plantar glabrous surface. Mechanical sensitivity was recorded as the paw withdrawal threshold (PWT, mN/mm^2) to calibrated von Frey filaments (Stoelting, Ill., US), as previously described^[39]. Sensitivity to noxious cold was assessed by placing animals in a waterbath with an aluminium floor containing 1 cm deep 4° C. water and counting the time the paw was held suspended over a 20 s period.
Icilin was applied at concentrations of 2.5-500 μM (in water with 0.2% DMF), by placing CCI or naïve rats unrestrained for 5 min in a 1 cm deep waterbath (sufficient to cover paws), which was thermostatically controlled to a temperature of 30° C., or by very lightly anaesthetising rats and immersing hindpaws in small tubes containing 5 ml icilin (500 μM-5 mM, with a vehicle of 45% dimethylformamide in 0.2% aqueous Tween 80) for 5 min, followed by sensory testing for 60-80 mins. The effects of (−)-menthol and its stereoisomers isomenthol (1S,2R,5R-menthol,) and (+)-menthol (1S,2R,5S(+)-menthol) (4-16 mM in 80% ethanol) were also assessed. Relevant vehicles were always assessed in similar experiments. As a contrast, the effect of cinnamaldehyde (1.5 mM in water) and the effect of cinnamaldehyde with additional icilin (80 μM in water with 0.2% DMF) were assessed in naïve animals. The effects of icilin (80 μM) were further assessed in CCI animals that had undergone antisense and mis-sense treatment for knockdown of TRPM8 or immediately following intrathecal injection of either LY 341495 or UBP 1112. […] The effects of brief paw immersion at different temperatures (10-22° C. for 5 min) on CCI rats were assessed by mechanical testing. The effects of intrathecal LY 341495 or UBP 1112 on the reversal of ipsilateral sensitisation in CCI following a 16° C. cool challenge for 5 min were measured. Reflex testing commenced 5 minutes following challenge, unless animals had been anaesthetised, in which case 15 minutes was allowed for recovery. Six replicate animals were tested in all pharmacological experiments.

[3] = antisense-treated animals, topical icilin 200 μM, (−)-menthol 4 mM, resiniferatoxin 1 mM
[4] = mis-sense-treated animals, topical icilin 200 μM, (−)-menthol 4 mM
[5] = mis-sense-treated animals, topical icilin 200 μM, (−)-menthol 4 mM, resiniferatoxin 1 mM
[6] = icilin 1000 μM applied to paw, 15 mins
[7] = icilin 1000 μM applied to paw, 50 mins
[8] = icilin 2500 μM applied to paw, 15 mins
[9] = icilin 2500 μM applied to paw, 50 mins
[10] = icilin 5000 μM applied to paw, 15 mins
[11] = icilin 5000 μM applied to paw, 50 mins

CC(C)[C@@H]1CC[C@@H](C)C[C@H]1O [(−)-menthol, 1R,2S,5R-(−)-menthol]
activation of afferents ([1]; antisense-treated animals, (−)-menthol 4 mM, 28 identified afferents recorded): no obviously activated afferents | firing frequency after drug [1, 3]: 4.8±1.9 Hz | recorded fibres activated [1, 4]: 20% | firing frequency after drug [1, 5]: 38.9±7.6 Hz | increase in firing frequency [1, 5]: approximately 8 fold

O=C1NC(c2cccc([N+](=O)[O-])c2)=CCN1c1ccccc1O [icilin, 1-(2′-hydroxyphenyl)-4-(3″-nitrophenyl)-1,2,3,6-tetrahydropyrimidin-2-one]
firing frequency after drug [1, 3]: 12.7±0.6 Hz | increase in firing frequency ([1]; antisense-treated animals, topical icilin 200 μM, resiniferatoxin 1 mM): approximately 2 fold | recorded slowly conducting fibres activated ([1]; antisense-treated naïve animals, icilin 200 μM topical, 3 out of 34): 8.8% | recorded fine afferents with significant increase in firing frequency ([1]; icilin 200 μM to receptive field, naïve animals, 40 out of 185): 21.6% | effect on large myelinated mechanoreceptors ([1]; icilin 200 μM, conduction velocities 6.8-15 ms^−1, n=43): unaffected | mean time to peak effect ([1]; icilin 200 μM, naïve animals): 3.3 ± 0.5 min | firing frequency after drug ([1]; icilin 200 μM, naïve animals, baseline 4.5±2.5 Hz): 31.6 Hz | mean increase in firing frequency ([1]; icilin 200 μM, naïve animals, from baseline of 4.5±2.5 Hz): 7 fold | recorded fibres activated [1, 4]: 25% | firing frequency after drug [1, 5]: 23.1±3.2 Hz | increase in firing frequency [1, 5]: 7 fold | Mechanical PWT [2, 6]: 4830.6 ± 0.0 mN/mm^2 | Thermal PWL [2, 6]: 15.1 ± 1.2 s | Mechanical PWT [2, 7]: 4830.6 ± 0.0 mN/mm^2 | Thermal PWL [2, 7]: 14.8 ± 0.9 s | Mechanical PWT [2, 8]: 4830.6 ± 0.0 mN/mm^2 | Thermal PWL [2, 8]: 14.9 ± 0.3 s | Mechanical PWT [2, 9]: 4830.6 ± 0.0 mN/mm^2 | Thermal PWL [2, 9]: 13.2 ± 0.8 s | Mechanical PWT [2, 10]: 3828.6 ± 316.8 mN/mm^2 | Thermal PWL [2, 10]: 15.3 ± 0.5 s | Mechanical PWT [2, 11]: 4830.6 ± 0.0 mN/mm^2 | Thermal PWL [2, 11]: 13.1 ± 0.7 s
